Reference: the supplement of paper PMC11616607

system: HOSE1C; test: drug sensitivity score (DSS) from 5-point dose-response viability curve (DSS (area-under-curve based score)); higher = more sensitive (stronger growth inhibition or killing); extreme values may be limits of the assay; details: exposure time: 72 h; concentration range: 5 concentrations over 10,000-fold range
In short: (§1)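 For the drug sensitivity score, obtained per cell line and drug in Breeze software, larger values mean greater sensitivity. No response corresponds to a score of zero. Ovarian cancer and normal ovarian cells were seeded at 1,500 per well into 384-well plates already holding acoustically dispensed drugs (Echo 550, DMSO or water, five concentrations over a 10,000-fold range) and incubated 3 days at 37°C, 5% CO2. CellTiter-Glo luminescence on a PHERAstar FS gave the viability readout.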

Compared with CCC(C)n1ncn(-c2ccc(N3CCN(c4ccc(OCC5COC(Cn6cncn6)(c6ccc(Cl)cc6Cl)O5)cc4)CC3)cc2)c1=O (stereo unspecified) [Itraconazole], Cc1ccc(NC(=O)c2ccc(CN3CCN(C)CC3)cc2)cc1Nc1nc(-c2cccnc2)cs1 [Masitinib] is higher in drug sensitivity score: 0 for the first, 1.8 for the second.

N#Cc1ccnc(N2C(=O)CC[C@H]2C(=O)N(c2cncc(F)c2)[C@H](C(=O)NC2CC(F)(F)C2)c2ccccc2Cl)c1 [Ivosidenib] and Oc1ccc2c(c1)CC[C@H](c1ccccc1)[C@@H]2c1ccc(OCCN2CCCC2)cc1 [Lasofoxifene] are the same in drug sensitivity score: 0 for the first, 0 for the second.

Going from C/C(=C\c1csc(C)n1)[C@@H]1C[C@@H]2O[C@]2(C)CCC[C@H](C)[C@H](O)[C@@H](C)C(=O)C(C)(C)[C@@H](O)CC(=O)N1 [Ixabepilone] to CC(=O)O[C@]1(C(C)=O)CC[C@H]2[C@@H]3C=C(C)C4=CC(=O)CC[C@]4(C)[C@H]3CC[C@@]21C [Megestrol acetate], the drug sensitivity score falls from 1.6 to 0.

Compared with CC(C)C[C@H](NC(=O)CNC(=O)c1cc(Cl)ccc1Cl)B(O)O [Ixazomib], Cc1c(F)cc(C(=O)NC2CC2)cc1-c1ccc(C(=O)NCC(C)(C)C)cn1 [Losmapimod] is lower in drug sensitivity score: 7.4 for the first, 0 for the second.

First: Nc1cc(COc2c(Cl)cc(C[C@H](N)C(=O)O)cc2Cl)c2oc(-c3ccccc3)nc2c1 [JPH203]
Second: C[C@]1(O)C[C@@H](c2nc(-c3ccc4ccc(-c5ccccc5)nc4c3)c3c(N)nccn32)C1 [Linsitinib]
The drug sensitivity score of the first is lower: 0 for the first, 0.7 for the second.

Going from CC(C)NC(=O)COc1cccc(-c2nc(Nc3ccc4[nH]ncc4c3)c3ccccc3n2)c1 [KD025] to NC1(c2ccc(-c3nc4ccn5c(=O)[nH]nc5c4cc3-c3ccccc3)cc2)CCC1 [MK-2206], the drug sensitivity score rises from 0 to 2.1.

CS(=O)(=O)CCNCc1ccc(-c2ccc3ncnc(Nc4ccc(OCc5cccc(F)c5)c(Cl)c4)c3c2)o1 [Lapatinib] and Cc1ccc(F)c(NC(=O)Nc2ccc(-c3cccc4[nH]nc(N)c34)cc2)c1 [Linifanib] are the same in drug sensitivity score: 0 for the first, 0 for the second.

O=C(Nc1cnn2ccc(N3CCC[C@@H]3c3cc(F)ccc3F)nc12)N1CC[C@H](O)C1 [Larotrectinib] and O=C(O)CC[C@H]1CC[C@@](c2cc(F)ccc2F)(S(=O)(=O)c2ccc(Cl)cc2)CC1 [MK-0752] are the same in drug sensitivity score: 0 for the first, 0 for the second.

First: Nc1cccc2c1CN(C1CCC(=O)NC1=O)C2=O (stereo unspecified) [Lenalidomide]
Second: Cn1cc(-c2cnn3c(N)c(Br)c([C@@H]4CCCNC4)nc23)cn1 [MK-8776]
The drug sensitivity score of the first is lower: 0 for the first, 5.1 for the second.

First: COc1cc2nccc(Oc3ccc(NC(=O)NC4CC4)c(Cl)c3)c2cc1C(N)=O [Lenvatinib]
Second: CNC(=O)c1cccc2cc(Oc3ccnc4cc(OCC5(N)CC5)c(OC)cc34)ccc12 [Lucitanib]
The drug sensitivity score of the first is lower: 0.4 for the first, 1.5 for the second.

N#Cc1ccc(C(c2ccc(C#N)cc2)n2cncn2)cc1 [Letrozole] and Cc1cnc(-c2ccccc2C(C)C)nc1NCc1ccc(-n2ccnn2)cc1 [ML323] are the same in drug sensitivity score: 0 for the first, 0 for the second.

Going from CCNCCS(=O)(=O)NC[C@@]1(c2ccccc2)SC(NC(=O)C(C)(C)C)=NN1C(=O)C(C)(C)C [Litronesib] to O=C(CCNC(=O)c1ccc(OC(F)(F)F)cc1)N[C@@H]1CCCc2ccccc21 [ML390], the drug sensitivity score falls from 25 to 19.8.

Going from Nc1nc(OCc2cc(Br)cs2)c2[nH]cnc2n1 [Lomeguatrib] to NC(=O)N1CCC(CC(=O)N2CCC([C@H]3c4ncc(Br)cc4CCc4cc(Cl)cc(Br)c43)CC2)CC1 [Lonafarnib], the drug sensitivity score rises from 0 to 8.

Compared with CC[C@H](C)C(=O)O[C@H]1C[C@@H](C)C=C2C=C[C@H](C)[C@H](CC[C@@H]3C[C@@H](O)CC(=O)O3)[C@H]21 [Lovastatin], CCNC(=O)c1noc(-c2cc(C(C)C)c(O)cc2O)c1-c1ccc(CN2CCOCC2)cc1 [Luminespib] is higher in drug sensitivity score: 7.5 for the first, 23.1 for the second.

Going from O=C(c1cccc(Cl)c1F)N1CCN(Cc2cccc(Nc3nccs3)n2)CC1 [MK-8745] to O=C(Nc1cccc(NC(=O)c2cccc(O)c2O)c1)c1cccc(O)c1O [MST-312], the drug sensitivity score rises from 2.1 to 11.9.

In the case of CNC(=O)[C@@H](NC(=O)[C@H](CC(C)C)[C@H](O)C(=O)NO)C(C)(C)C [Marimastat], the drug sensitivity score was 0.

system: HOSE2C; test: as above; details: exposure time: 72 h; concentration range: 5 concentrations over 10,000-fold range
In short: as §1

CCC(C)n1ncn(-c2ccc(N3CCN(c4ccc(OCC5COC(Cn6cncn6)(c6ccc(Cl)cc6Cl)O5)cc4)CC3)cc2)c1=O (stereo unspecified) [Itraconazole] and Oc1ccc2c(c1)CC[C@H](c1ccccc1)[C@@H]2c1ccc(OCCN2CCCC2)cc1 [Lasofoxifene] are the same in drug sensitivity score: 0 for the first, 0 for the second.

Compared with N#Cc1ccnc(N2C(=O)CC[C@H]2C(=O)N(c2cncc(F)c2)[C@H](C(=O)NC2CC(F)(F)C2)c2ccccc2Cl)c1 [Ivosidenib], COc1cc2nccc(Oc3ccc(NC(=O)NC4CC4)c(Cl)c3)c2cc1C(N)=O [Lenvatinib] is higher in drug sensitivity score: 0 for the first, 2.9 for the second.

Going from C/C(=C\c1csc(C)n1)[C@@H]1C[C@@H]2O[C@]2(C)CCC[C@H](C)[C@H](O)[C@@H](C)C(=O)C(C)(C)[C@@H](O)CC(=O)N1 [Ixabepilone] to Nc1cccc2c1CN(C1CCC(=O)NC1=O)C2=O (stereo unspecified) [Lenalidomide], the drug sensitivity score falls from 2 to 0.

Compared with CC(C)C[C@H](NC(=O)CNC(=O)c1cc(Cl)ccc1Cl)B(O)O [Ixazomib], Nc1cc(COc2c(Cl)cc(C[C@H](N)C(=O)O)cc2Cl)c2oc(-c3ccccc3)nc2c1 [JPH203] is lower in drug sensitivity score: 7.8 for the first, 0 for the second.

Going from CC(C)NC(=O)COc1cccc(-c2nc(Nc3ccc4[nH]ncc4c3)c3ccccc3n2)c1 [KD025] to C[C@]1(O)C[C@@H](c2nc(-c3ccc4ccc(-c5ccccc5)nc4c3)c3c(N)nccn32)C1 [Linsitinib], the drug sensitivity score rises from 0 to 2.

CS(=O)(=O)CCNCc1ccc(-c2ccc3ncnc(Nc4ccc(OCc5cccc(F)c5)c(Cl)c4)c3c2)o1 [Lapatinib] and Cc1ccc(F)c(NC(=O)Nc2ccc(-c3cccc4[nH]nc(N)c34)cc2)c1 [Linifanib] are the same in drug sensitivity score: 0 for the first, 0 for the second.

O=C(Nc1cnn2ccc(N3CCC[C@@H]3c3cc(F)ccc3F)nc12)N1CC[C@H](O)C1 [Larotrectinib] and N#Cc1ccc(C(c2ccc(C#N)cc2)n2cncn2)cc1 [Letrozole] are the same in drug sensitivity score: 0 for the first, 0 for the second.

For CCNCCS(=O)(=O)NC[C@@]1(c2ccccc2)SC(NC(=O)C(C)(C)C)=NN1C(=O)C(C)(C)C [Litronesib], the drug sensitivity score was 16.7.
